A short description of data set [1]: Tumor platinum levels (ICP-MS) in H460 tumor-bearing nude mice. It is filed as in vivo, mouse. The protocol: To examine the ability of compounds disclosed herein to accumulate in tumors, a murine cancer model was used. Animals were inoculated with 5×10^5 H460 […] lung cancer cells via subcutaneous injection to the flank. Tumors were allowed to reach an approximate volume of ˜500 mm^3. Animals were then randomized into treatment groups of 3 animals per time point and were dosed at 4 mg/kg. The 24-hour time point was used as a benchmark across compounds.
Tumor platinum levels were determined by inductively coupled plasma mass spectrometry (ICP-MS). Tumors were excised from animals and dissolved in fuming nitric acid (60% w/w) by adding four parts nitric acid to 1 part tumor w/w and heating overnight at 60° C. The resulting digest was diluted 1:10 in ICP-MS analysis buffer (1% nitric acid, 2% Triton® X-100), and directly introduced into the ICP-MS unit by peristaltic pump. The end dilution factor for the samples as introduced to the ICP-MS was 50×.

For another data set, the system named is Calu-6 NSCLC xenografts. As to the kind of experiment: Tumor growth inhibition in Calu-6 NSCLC xenografts in nude mice. It is filed as in vivo, mouse. Particulars: dose not given. An excerpt:
(§1) Tumor measurements were taken twice weekly, using vernier calipers.

Another data set concerns H460 cells. As to the kind of experiment: In vitro inhibition of cell proliferation (CellTiter-Glo). It counts as cell-based, human. Particulars: 48 hours treatment; starting dose 20 uM, three-fold dilutions. On the procedure: Human cancer cell lines were plated in 96 well plates (Costar) and 24 hours later were treated with a compound for 48-72 hours. Specifically, H460 cells (ATCC) were plated at a concentration of 1,500 cells per well and compound treatment was carried out for 48 hours. Compound starting dose was 20 uM and three-fold serial dilutions were done for a total of ten points. Inhibition of cell proliferation was measured using CellTiter-Glo® reagent using the standard protocol (Promega) and a Glomax® multi+detection system (Promega). Percent proliferation inhibition was calculated using the following formula: % inhibition=(control-treatment)/control*100. Control is defined as vehicle alone. IC50 curves were generated using the nonlinear regression analysis (four parameter) with GraphPad Prism 6.
Background: In ATP-based viability assays light output follows the ATP content of the culture.

Data set [2] deals with MX-1 human breast cancer xenograft. It counts as in vivo, mouse. Particulars: for % T/C (mean tumor volume) / % T/C (median tumor volume) / Mean tumor volume / Median tumor volume: days 1, 5, 8, 12. An excerpt: MX-1 cell line is estrogen receptor negative and Her2 normal. It is generic and BRCA1 and BRCA2 mutant: BRCA1 truncating mutation (3363delGAAA) and BRCA2 mutations (16864A>C, Asn289His, and 22184A>G, Asn991Asp). Average tumor volumes and platinum levels in the tumors were shown in FIG. 29 and Table 9. % T/C in Table 9 is the tumor to control ratio, i.e., the size of tumor divided by the size of tumor control. The lower % T/C is, the higher TGI % is.

The subject of the next data set is A2780 ovarian xenografts. The experiment in a line: Tumor growth inhibition in A2780 ovarian xenografts in nude mice. It is filed as in vivo, mouse. Particulars: for TGI %: dose not given; for TGI % compared to cisplatin and oxaliplatin (FIG. 17): in vivo screen, A2780 model.
Description: as §1

Another data set is described as follows: Rat toxicology study. It counts as in vivo.
Another data set relates to NCI-H520. The experiment in a line: Multiple-dose efficacy study in lung cancer (NSCLC) model NCI-H520. It is filed as in vivo. Particulars: 15 mg/kg. The protocol: Tumor volumes and platinum levels were tracked over a course of 32 days after treatment of multiple doses of compound 8 (dosed at days 0, 3, 7 and 10) in lung cancer (NSCLC) model NCI-H520. Compound 8 was dosed at 15 mg/kg.
Cell dedifferentiation and apoptosis were studied with immunohistochemical (IHC) and TUNEL stainings.

Where [3] appears, read: H460 tumors, dosed at 4 mg/kg, 24-hour time point.
[4] abbreviates: Table 6 study, Calu-6 xenografts.
[5] abbreviates: Table 5 study, A2780 xenografts.
Where [6] appears, read: nude, mouse, in vivo, 4 mg/kg, 24 h.

Like-named read-outs stand apart in the source and are kept apart here.

By IC50 is commonly meant the point on the concentration scale where inhibition reaches its midpoint. A high value points to lower potency. For `N.N.[Cl][Pt][Cl]` [Cisplatin], the “Platinum in tumor (mM/mmole/kg platinum dosed)” value (shortened to “Platinum in tumor”) in data set [1] (setting [3]) is listed as 0.27 mM/mmole/kg platinum dosed. For the same compound, the TGI % in the data set on Calu-6 NSCLC xenografts (Table 4 study, comparators) was found to be 91.4%; with Calu-6 NSCLC xenografts (setting [4]), 94.57%; with A2780 ovarian xenografts (Table 2 study, comparators) it was 54.5%; in the data set with A2780 ovarian xenografts (Table 3 study, comparators), 44.2%; in the data set with A2780 ovarian xenografts (setting [5]) it was 53.04%. The compound also displayed an IC50 in the data set on H460 cells of 2000 nM. Besides, the “% T/C (mean tumor volume)” value in data set [2] (Day 1, 3 mg/kg) is listed as 100.6%; in data set [2] (Day 5, 3 mg/kg) it was 96.2%; in data set [2] (Day 8, 3 mg/kg), 39.3%; in data set [2] (Day 12, 3 mg/kg) it was 4.9%; in data set [2] (Day 15, 3 mg/kg), 1.4%. For the same compound, the “% T/C (median tumor volume)” value in data set [2] (Day 1, 3 mg/kg) turned out to be 105.5%; in data set [2] (Day 5, 3 mg/kg), 107.3%; in data set [2] (Day 8, 3 mg/kg), 42.9%; in data set [2] (Day 12, 3 mg/kg), 5.4%; in data set [2] (Day 15, 3 mg/kg), 1.5%. The Mean tumor volume is 153.6 mm^3 in data set [2] (Day 1, 3 mg/kg); 343.7 mm^3 in data set [2] (Day 5, 3 mg/kg); 251.2 mm^3 in data set [2] (Day 8, 3 mg/kg); 57.6 mm^3 in data set [2] (Day 12, 3 mg/kg); 26.7 mm^3 in data set [2] (Day 15, 3 mg/kg). In addition, the Median tumor volume in data set [2] (Day 1, 3 mg/kg) is 155.2 mm^3; in data set [2] (Day 5, 3 mg/kg), 350.2 mm^3; in data set [2] (Day 8, 3 mg/kg) it was 266.3 mm^3; in data set [2] (Day 12, 3 mg/kg) it was 57.6 mm^3; in data set [2] (Day 15, 3 mg/kg) it was 29.7 mm^3. In addition, the “TGI % Day 15” value in data set [2] (Day 15, 3 mg/kg) is recorded as 98.6%.

Consider `CCNC(=O)[O][Pt]([NH2])([NH2])([Cl])([Cl])[O]C(=O)CCCCCN1C(=O)C=CC1=O` [Compound 7], for which the “Platinum in tumor” value in data set [1] (setting [6]) is given as 0.51 mM/mmole/kg platinum dosed.

`CC(=O)[O][Pt]([NH2])([NH2])([Cl])([Cl])[O]C(=O)NCCCCCN1C(=O)C=CC1=O` [Compound 8]: the “Platinum in tumor” value in data set [1] (setting [6]) is listed as 0.51 mM/mmole/kg platinum dosed. In “Rat toxicology study” (at a higher dose of platinum), the “kidney toxicity (blood markers and histopathology) compared to cisplatin” value was “improvement in kidney toxicity compared to cisplatin”. Also, in the data set “Rat toxicology study” (rat, in vivo), the other histopathology findings result is “No other histopathology findings”. Further, in data set [2] (day 15), the “tumor outcome at day 15 (in words)” value was “Tumor disappeared”. For the same compound, in the data set with A2780 ovarian xenografts, the “TGI % compared to cisplatin and oxaliplatin (FIG. 17)” value (“TGI % … (FIG. 17)” for short) is “superior TGI % to cisplatin and oxaliplatin”. In addition, in the data set with NCI-H520 (days 0, 3, 7 and 10, cisplatin 3 mg/kg, 32 days), the “tumor growth inhibition versus cisplatin” value was “superior tumor growth inhibition than cisplatin”. Also, the “apoptosis and dedifferentiation in tumors (IHC, TUNEL)” value in the data set with NCI-H520 (images from day 10) is “significant and sustained increase in apoptosis and dedifferentiation”.

For `COCC(=O)[O][Pt]([NH2])([NH2])([Cl])([Cl])[O]C(=O)CCCCCN1C(=O)C=CC1=O` [Compound 9], the “Platinum in tumor” value in data set [1] (setting [6]) is given as 0.53 mM/mmole/kg platinum dosed.

On to `CC(=O)[O][Pt]([NH2])([NH2])([Cl])([Cl])[O]C(=O)CCCCCN1C(=O)C=CC1=O` [Compound 11], for which the “Platinum in tumor” value in data set [1] (setting [6]) is reported as 0.68 mM/mmole/kg platinum dosed. The “TGI % … (FIG. 17)” value in the data set with A2780 ovarian xenografts is “superior TGI % to cisplatin and oxaliplatin”.

As for `O=C1[O][Pt]2([NH][C@@H]3CCCC[C@H]3[NH]2)[O]C1=O` [Oxaliplatin], in data set [1] (setting [3]), the “Platinum in tumor” value was 0.12 mM/mmole/kg platinum dosed. Also, the TGI % in the data set with Calu-6 NSCLC xenografts (Table 4 study, comparators) came out at 56.7%; in the data set with Calu-6 NSCLC xenografts (setting [4]) it was 21.19%; in the data set on A2780 ovarian xenografts (Table 2 study, comparators) it was 45.9%; in the data set on A2780 ovarian xenografts (Table 3 study, comparators) it was 40.1%; with A2780 ovarian xenografts (setting [5]), 43.75%.

Turning to “acetate 6-(2,5-dioxo-2H-pyrrol-1(5H)-yl) hexanoate oxaliplatin [Compound 1]”, in data set [1] (setting [3]), the “Platinum in tumor” value was 0.57 mM/mmole/kg platinum dosed. Moreover, the “TGI % … (FIG. 17)” value in the data set with A2780 ovarian xenografts was “superior TGI % to cisplatin and oxaliplatin”.

Values taken from US20180186823A1, “PLATINUM COMPOUNDS, COMPOSITIONS, AND USES THEREOF” (PLACON THERAPEUTICS, INC., priority 2015, published 2018).
